From ChEMBL document CHEMBL1201862, “PubChem BioAssay data set” (2004)
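Where inhibition never reached the appropriate level, the endpoint shown equals the highest concentration tested. Otherwise, values were interpolated linearly from a five-concentration, 48-hour dose response in 96-well plates. GI50 = concentration required for 50% inhibition of growth.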 Activity calls are given as the source filed them. No stated cut-off is given here; in the data, active = GI50 up to about 1.1 µM and inactive = higher.

Experiments:
Assay in all cases: DTP human tumour cell line panel, 48 h
786-0 = system: 786-0
A549 = system: A549
SK-MEL-5 = system: SK-MEL-5
SK-OV-3 = system: SK-OV-3
DLD-1 = system: DLD-1
SK-MEL-2 = system: SK-MEL-2
A498 = system: A498
M14 = system: M14
SNB-75 = system: SNB-75
HT-29 = system: HT-29
SN12C = system: SN12C
NCI-H460 = system: NCI-H460
Malme-3M = system: Malme-3M
UACC-257 = system: UACC-257
RPMI-8226 = system: RPMI-8226
ACHN = system: ACHN
OVCAR-5 = system: OVCAR-5
MDA-MB-231 = system: MDA-MB-231
NCI/ADR-RES = system: NCI/ADR-RES
MDA-MB-435 = system: MDA-MB-435

Structure (SMILES)	GI50 (786-0)	GI50 (A549)	GI50 (SK-MEL-5)	GI50 (SK-OV-3)	GI50 (DLD-1)	GI50 (SK-MEL-2)	GI50 (A498)	GI50 (M14)	GI50 (SNB-75)	GI50 (HT-29)	GI50 (SN12C)	GI50 (NCI-H460)	GI50 (Malme-3M)	GI50 (UACC-257)	GI50 (RPMI-8226)	GI50 (ACHN)	GI50 (OVCAR-5)	GI50 (MDA-MB-231)	GI50 (NCI/ADR-RES)	GI50 (MDA-MB-435)
O=C(O)CCC1CCc2cccc3occ1c23 (centres undefined)	> 100 µM (inactive)	> 100 µM (inactive)	> 100 µM (inactive)	> 100 µM (inactive)	> 100 µM (inactive)	> 100 µM (inactive)	> 100 µM (inactive)	> 100 µM (inactive)	> 100 µM (inactive)	> 100 µM (inactive)	> 100 µM (inactive)	> 100 µM (inactive)	> 100 µM (inactive)	> 100 µM (inactive)	> 100 µM (inactive)	> 100 µM (inactive)	> 100 µM (inactive)	–	–	–
Cc1cc2c(c(N)c1C)C(=O)c1ccccc1C2=O	20.2 µM (inactive)	26.3 µM (inactive)	20.2 µM (inactive)	17.5 µM (inactive)	62.7 µM (inactive)	66.8 µM (inactive)	19.7 µM (inactive)	29.2 µM (inactive)	12.5 µM (inactive)	49.5 µM (inactive)	49.1 µM (inactive)	34.5 µM (inactive)	42.3 µM (inactive)	87.1 µM (inactive)	52.1 µM (inactive)	14.1 µM (inactive)	> 100 µM (inactive)	–	–	–
C/C(=N\NC(=N)N)C(CN(C)C)C(c1ccccc1)c1c(O)c2ccccc2oc1=O (centres undefined)	> 100 µM (inactive)	> 100 µM (inactive)	> 100 µM (inactive)	> 100 µM (inactive)	> 100 µM (inactive)	> 100 µM (inactive)	> 100 µM (inactive)	> 100 µM (inactive)	98.4 µM (inactive)	> 100 µM (inactive)	> 100 µM (inactive)	> 100 µM (inactive)	> 100 µM (inactive)	> 100 µM (inactive)	> 100 µM (inactive)	> 100 µM (inactive)	> 100 µM (inactive)	> 100 µM (inactive)	> 100 µM (inactive)	> 100 µM (inactive)
CC(C)c1ccc(/C=C(\NC(=O)c2ccccc2)c2nc3ccccc3[nH]2)cc1	39.3 µM (inactive)	27.9 µM (inactive)	23.5 µM (inactive)	> 100 µM (inactive)	30.3 µM (inactive)	34.4 µM (inactive)	40.6 µM (inactive)	32.3 µM (inactive)	36.3 µM (inactive)	33.6 µM (inactive)	55 µM (inactive)	59.4 µM (inactive)	79.3 µM (inactive)	35.2 µM (inactive)	20 µM (inactive)	33.7 µM (inactive)	75.3 µM (inactive)	–	–	–
O=C(O)CCC(=O)N1C/C(=C\c2ccccc2)C(=O)/C(=C/c2ccccc2)C1	2.52 µM (inactive)	19.1 µM (inactive)	2.65 µM (inactive)	12.7 µM (inactive)	2.32 µM (inactive)	1.82 µM (inactive)	13.9 µM (inactive)	2.32 µM (inactive)	6.82 µM (inactive)	2.23 µM (inactive)	1.93 µM (inactive)	8.22 µM (inactive)	2.33 µM (inactive)	2.29 µM (inactive)	2.42 µM (inactive)	2.07 µM (inactive)	15 µM (inactive)	–	–	–
c1ccc(C2C3=C(Nc4ncnn42)c2ccccc2C3)cc1 (centres undefined)	25.4 µM (inactive)	34.5 µM (inactive)	10.9 µM (inactive)	13.2 µM (inactive)	14.1 µM (inactive)	11.6 µM (inactive)	51.2 µM (inactive)	5.38 µM (inactive)	83.9 µM (inactive)	4.3 µM (inactive)	35.3 µM (inactive)	12.1 µM (inactive)	15.6 µM (inactive)	> 100 µM (inactive)	29.5 µM (inactive)	82.6 µM (inactive)	46.8 µM (inactive)	–	–	–
O=C(/C=C/c1c(O)ccc2ccccc12)c1ccccc1	63.5 µM (inactive)	> 100 µM (inactive)	> 100 µM (inactive)	> 100 µM (inactive)	85.7 µM (inactive)	> 100 µM (inactive)	> 100 µM (inactive)	> 100 µM (inactive)	0.413 µM (active)	15.7 µM (inactive)	> 100 µM (inactive)	> 100 µM (inactive)	> 100 µM (inactive)	> 100 µM (inactive)	27 µM (inactive)	> 100 µM (inactive)	> 100 µM (inactive)	–	–	–
CCc1ccc(/N=C\c2cc(OC)c(OC)c(OC)c2)cc1	> 100 µM (inactive)	> 100 µM (inactive)	> 100 µM (inactive)	> 100 µM (inactive)	77.8 µM (inactive)	> 100 µM (inactive)	> 100 µM (inactive)	> 100 µM (inactive)	> 100 µM (inactive)	> 100 µM (inactive)	> 100 µM (inactive)	37.7 µM (inactive)	> 100 µM (inactive)	> 100 µM (inactive)	16.6 µM (inactive)	> 100 µM (inactive)	> 100 µM (inactive)	–	–	–
BrCC[N+]12CCCN1CCC2	9.06 µM (inactive)	41.1 µM (inactive)	18 µM (inactive)	> 65.5 µM (inactive)	4.38 µM (inactive)	20.5 µM (inactive)	45.9 µM (inactive)	11 µM (inactive)	16.7 µM (inactive)	10.8 µM (inactive)	14.7 µM (inactive)	22.3 µM (inactive)	2.32 µM (inactive)	18.7 µM (inactive)	1.53 µM (inactive)	7.26 µM (inactive)	21.5 µM (inactive)	17.5 µM (inactive)	–	–
CCOC(=O)Nn1c(C)cc(C(=O)OC)c1C	> 100 µM (inactive)	> 100 µM (inactive)	> 100 µM (inactive)	> 100 µM (inactive)	> 100 µM (inactive)	> 100 µM (inactive)	> 100 µM (inactive)	> 100 µM (inactive)	> 100 µM (inactive)	> 100 µM (inactive)	> 100 µM (inactive)	> 100 µM (inactive)	> 100 µM (inactive)	> 100 µM (inactive)	> 100 µM (inactive)	> 100 µM (inactive)	> 100 µM (inactive)	–	–	–
